Data published in patent US20110280940A1, “Di-Vanilloyl And Tri-Vanilloyl Derivatives For Use In Anti-Cancer Therapy” (priority 2008, published 2011).

Legend:
GSK-3 = test: Kinase activity assay, GSK3; assay type: biochemical, porcine; settings: 10 μM, 1% DMSO, 15 μM ATP; residual activity
Experimental: (§1) Buffer A: 10 mM MgCl2, 1 mM EGTA, 1 mM DTT, 25 mM Tris-HCl pH 7.5, 50 μg heparin/ml. Buffer C: 60 mM β-glycerophosphate, 15 mM p-nitrophenylphosphate, 25 mM Mops (pH 7.2), 5 mM EGTA, 15 mM MgCl2, 1 mM DTT, 1 mM sodium vanadate, 1 mM phenyl phosphate.
(§2) Kinase activities were assayed in Buffer A or C, at 30° C., at a final ATP concentration of 15 μM. Blank values were subtracted and activities expressed in % of the maximal activity, i.e. in the absence of inhibitors. Controls were performed with appropriate dilutions of DMSO.
GSK-3 (porcine brain, native) was assayed, as described for CDK1 but in Buffer A and using a GSK-3 specific substrate (GS-1: […]pEDEEE) (Seq. ID NO 1) (pS stands for phosphorylated serine) (Primot et al., 2000, Protein Expr. & Purif. 20 (3), 394-404). GS-1 was synthesized by Millegen (Labege, France).

CK1 = test: Kinase activity assay, CK1; assay type: biochemical, porcine; settings: 10 μM, 1% DMSO, 15 μM ATP; residual activity
Experimental: as §1, §2
CK1 (porcine brain, native) was assayed as described for CDK1 but using the CK1-specific peptide substrate […]pSAYSITA (Seq. ID NO 2) (Reinhardt et al., 2007, Protein Expr. & Purif. 54, 101-109), obtained from Millegen (Labege, France).

[1] = test system: PC-3 prostate cancer cells; test: MTT colorimetric assay, overall cell growth, PC-3; assay type: cell-based, human; settings: Homo sapiens, 72 hours of incubation, read-out: In Vitro IC50 Growth Inhibitory Values, PC-3
How it was run: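 Growth is measured as remaining living cells relative to untreated controls after 72 h at 37 °C with compound at 10^-8 to 10^-4 M. Readout is MTT formazan absorbance at 570 nm.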

Aurora kinases = test: Kinase inhibition profile of DLT11 at 20 μM, Aurora kinases; assay type: biochemical, human; settings: 20 μM (FIG. 3)
Experimental: The kinase inhibition profile of DLT11 at 20 μM was determined using 250 protein kinases. Residual activity values were measured by testing each compound at one concentration in duplicate in each kinase assay. A radiometric protein kinase assay (33 PanQinase®Activity Assay) was used for measuring the kinase activity of 250 protein kinases. All kinase assays were performed in 96-well flashPlates™ from Perkin Elmer (Boston, Mass., USA) in a 50 μl reaction volume. The reaction cocktail was pipetted in 4 steps in the following order: • 10 μl of non-radioactive ATP solution (in H2O) • 25 μl of assay buffer/[γ-33P]-ATP mixture • 5 μl of test sample in 10% DMSO • 10 μl of enzyme/substrate mixture […]
Incorporation of ^33Pi (counting of “cpm”) was determined with a microplate scintillation counter (Microbeta, Wallac).
For each kinase, the median value of the cpm of three wells with complete reaction cocktails, but without kinase, was defined as “low control” (n=3). This value reflects unspecific binding of radioactivity to the plate in the absence of protein kinase but in the presence of the substrate. […] The residual activity (in %) for each compound well was calculated by using the following formula: Res. Activity (%)=100×[(cpm of compound−low control)/(high control−low control)]

SMILES: COc1cc(C(=O)OCCOC(=O)c2ccc(O)c(OC)c2)ccc1O [DLT1, Ethane-1,2-diyl bis-(4-hydroxy-3-methoxybenzoate)]
- % ENZYMATIC ACTIVITY, GSK3 (GSK-3): 77%
- % ENZYMATIC ACTIVITY, Ckone (CK1): 62%

SMILES: COc1cc(C(=O)O)ccc1O [vanillic acid, reference compound]
- IC50 [1]: > 1000 µM

SMILES: COc1cc(C(=O)OCCCCCCOC(=O)c2ccc(O)c(OC)c2)ccc1O [DLT11, Hexane-1,6-diyl bis-(4-hydroxy-3-methoxybenzoate)]
- inhibition of 2 Aurora kinases (Aurora kinases): more than 80%
